EC30 data for 20 molecules are collected here from US10758534B2 (Vertex Pharmaceuticals Incorporated, priority 2014, dated 2020).

Structures are written as SMILES.

T1 sequence (P13569 with tags, fused parts or gaps DEL508-508): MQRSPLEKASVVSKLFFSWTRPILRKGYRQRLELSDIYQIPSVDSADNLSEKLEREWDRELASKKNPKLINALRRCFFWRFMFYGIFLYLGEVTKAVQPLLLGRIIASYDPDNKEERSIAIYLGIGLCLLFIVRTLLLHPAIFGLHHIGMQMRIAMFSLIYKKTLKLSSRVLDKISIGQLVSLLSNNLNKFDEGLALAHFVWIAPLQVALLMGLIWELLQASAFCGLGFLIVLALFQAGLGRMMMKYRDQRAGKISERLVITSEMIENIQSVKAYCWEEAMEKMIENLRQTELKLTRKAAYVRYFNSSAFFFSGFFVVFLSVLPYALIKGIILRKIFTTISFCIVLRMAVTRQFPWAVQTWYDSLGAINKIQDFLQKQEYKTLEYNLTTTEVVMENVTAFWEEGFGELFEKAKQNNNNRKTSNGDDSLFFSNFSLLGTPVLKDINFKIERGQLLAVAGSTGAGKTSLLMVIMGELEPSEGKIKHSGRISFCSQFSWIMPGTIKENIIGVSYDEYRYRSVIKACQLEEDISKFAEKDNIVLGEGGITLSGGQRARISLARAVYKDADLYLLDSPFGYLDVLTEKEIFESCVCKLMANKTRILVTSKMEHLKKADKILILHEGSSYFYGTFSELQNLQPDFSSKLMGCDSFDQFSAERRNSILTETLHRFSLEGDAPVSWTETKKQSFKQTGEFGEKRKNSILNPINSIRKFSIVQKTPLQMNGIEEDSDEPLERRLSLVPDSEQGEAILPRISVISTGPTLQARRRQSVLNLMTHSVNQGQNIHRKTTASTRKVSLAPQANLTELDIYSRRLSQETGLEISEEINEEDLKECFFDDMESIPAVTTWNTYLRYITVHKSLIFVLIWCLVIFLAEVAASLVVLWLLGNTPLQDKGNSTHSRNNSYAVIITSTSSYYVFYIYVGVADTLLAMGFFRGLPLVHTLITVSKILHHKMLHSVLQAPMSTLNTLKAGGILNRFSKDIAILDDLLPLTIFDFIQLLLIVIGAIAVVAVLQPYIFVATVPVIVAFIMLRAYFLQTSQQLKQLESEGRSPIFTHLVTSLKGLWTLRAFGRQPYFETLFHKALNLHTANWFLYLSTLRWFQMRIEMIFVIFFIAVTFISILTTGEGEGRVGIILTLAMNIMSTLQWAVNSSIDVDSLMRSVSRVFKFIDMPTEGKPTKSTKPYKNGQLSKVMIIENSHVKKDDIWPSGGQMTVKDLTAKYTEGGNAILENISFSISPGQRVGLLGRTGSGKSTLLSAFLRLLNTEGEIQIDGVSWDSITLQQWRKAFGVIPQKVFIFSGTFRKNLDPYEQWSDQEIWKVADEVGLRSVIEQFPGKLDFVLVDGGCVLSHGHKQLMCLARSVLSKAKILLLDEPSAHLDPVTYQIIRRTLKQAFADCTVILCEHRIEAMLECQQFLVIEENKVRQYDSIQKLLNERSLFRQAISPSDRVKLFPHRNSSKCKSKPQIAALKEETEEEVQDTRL

The experiment concerns the target T1, F508del (Homo sapiens, UniProt P13569, DEL508-508).
T1 construct: expressed in transfected cells
As to the kind of experiment: Protocol 1: membrane potential optical assay (FLIPR III, voltage sensing dye), identification of potentiator compounds. As to conditions: Table 3, compounds of Table 1. The experiment is classed as cell-based. The method in brief: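 Membrane potential in forskolin-activated, temperature-rescued F508del NIH 3T3 cells is followed with a voltage-sensing dye on FLIPR III. A chloride ion gradient created at the single addition step provides the driving force, after prior compound treatment.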
As for `CC(C)COc1cc(F)cc(-c2ccc(C(=O)NS(=O)(=O)c3cccc(N)n3)c(N3CCC[C@H](C)C3)n2)c1` [Compound 1193, N-[(6-amino-2-pyridyl)sulfonyl]-6-(3-fluoro-5-isobutoxy-phenyl)-2-[(3S)-3-methyl-1-piperidyl]pyridine-3-carboxamide], the EC30 result is reported as “+++ (“+++” means <3 uM)”.

In the case of `CC1CN(c2ncccc2C(=O)NS(=O)(=O)c2cccc(Oc3cccc4c3CCCC4)n2)C(C)(C)C1` (centres unmarked) [Compound 1955, N-[(6-tetralin-5-yloxy-2-pyridyl)sulfonyl]-2-(2,2,4-trimethylpyrrolidin-1-yl)pyridine-3-carboxamide], the EC30 result was “+++ (“+++” means <3 uM)”. `Cc1ccnc(-c2ccc(C(=O)NS(=O)(=O)c3cccc(N)n3)c(Oc3c(C)cc(C)cc3C)n2)c1` [Compound 1272, N-[(6-amino-2-pyridyl)sulfonyl]-6-(4-methyl-2-pyridyl)-2-(2,4,6-trimethylphenoxy)pyridine-3-carboxamide]: the EC30 result is recorded as “+++ (“+++” means <3 uM)”. With `CC(C)COc1cc(F)cc(-c2ccc(C(=O)NS(=O)(=O)c3cccc(N)n3)c(OC(C)C3CCCC3)n2)c1` (centres unmarked) [Compound 1374, N-[(6-amino-2-pyridyl)sulfonyl]-2-(1-cyclopentylethoxy)-6-(3-fluoro-5-isobutoxy-phenyl)pyridine-3-carboxamide] the entry was “+++ (“+++” means <3 uM)”; with `CC1CN(c2ncccc2C(=O)NS(=O)(=O)c2cccc(Nc3ccc(C(C)(C)C)cc3)n2)C(C)(C)C1` (centres unmarked) [Compound 1756, N—[[6-(4-tert-butylanilino)-2-pyridyl]sulfonyl]-2-(2,2,4-trimethylpyrrolidin-1-yl)pyridine-3-carboxamide], “+++ (“+++” means <3 uM)”. With `CC(C)COc1cc(F)cc(-c2ccc(C(=O)NS(=O)(=O)c3cccc(N)n3)c(OCCC3CCCC3)n2)c1` [Compound 1440, N-[(6-amino-2-pyridyl)sulfonyl]-2-(2-cyclopentylethoxy)-6-(3-fluoro-5-isobutoxy-phenyl)pyridine-3-carboxamide], the EC30 result was “+++ (“+++” means <3 uM)”. To `CC1CCN(c2nc(-c3ccc(C(C)C)cc3)ccc2C(=O)NS(=O)(=O)c2cccc(N)n2)CC1` [Compound 847, N-[(6-amino-2-pyridyl)sulfonyl]-6-(4-isopropylphenyl)-2-(4-methyl-1-piperidyl)pyridine-3-carboxamide] belongs “+++ (“+++” means <3 uM)”; to `C[C@@H]1CN(c2nc(C3=CCN(C(=O)OC(C)(C)C)CC3)ccc2C(=O)NS(=O)(=O)c2cccc(N)n2)C(C)(C)C1` [Compound 1624, tert-butyl 4-[5-[(6-amino-2-pyridyl)sulfonylcarbamoyl]-6-[(4S)-2,2,4-trimethylpyrrolidin-1-yl]-2-pyridyl]-3,6-dihydro-2H-pyridine-1-carboxylate], “+++ (“+++” means <3 uM)”; to `C[C@@H]1CN(c2nc(C(C)(C)C)c(/C=C/C(C)(C)C)cc2C(=O)NS(=O)(=O)c2cccc(N)n2)C(C)(C)C1` [Compound 1613, N-[(6-amino-2-pyridyl)sulfonyl]-6-tert-butyl-5-[(E)-3,3-dimethylbut-1-enyl]-2-[(4S)-2,2,4-trimethylpyrrolidin-1-yl]pyridine-3-carboxamide], “+++ (“+++” means <3 uM)”. Regarding `CCOc1cccc2c1CN(Cc1c(C)cc(C)cc1C)C2(C)C(=O)NS(=O)(=O)c1cccc(N)n1` (centres unmarked) [Compound 1346, N-[(6-amino-2-pyridyl)sulfonyl]-4-ethoxy-1-methyl-2-[(2,4,6-trimethylphenyl)methyl]isoindoline-1-carboxamide], the EC30 entry is “+++ (“+++” means <3 uM)”. To `CC(C)COc1cc(F)cc(-c2ccc(C(=O)NS(=O)(=O)c3cccc(N)n3)c(N3C[C@H]4CC[C@@H]3C4)n2)c1` [Compound 924, N-[(6-amino-2-pyridyl)sulfonyl]-2-[(1S,4R)-3-azabicyclo[2.2.1]heptan-3-yl]-6-(3-fluoro-5-isobutoxy-phenyl)pyridine-3-carboxamide] belongs “+++ (“+++” means <3 uM)”; to `CC(C)Oc1ccc(-c2ccc(C(=O)NS(=O)(=O)c3cccc(N)n3)c(N3CCC(C)(C)C3C)n2)cn1` (centres unmarked) [Compound 1327, N-[(6-amino-2-pyridyl)sulfonyl]-6-(6-isopropoxy-3-pyridyl)-2-(2,3,3-trimethylpyrrolidin-1-yl)pyridine-3-carboxamide], “+++ (“+++” means <3 uM)”; to `CC1CN(c2nc(C(C)(C)C)c(-c3ccccc3)cc2C(=O)NS(=O)(=O)c2cccc(N)n2)C(C)(C)C1` (centres unmarked) [Compound 1364, N-[(6-amino-2-pyridyl)sulfonyl]-6-tert-butyl-5-phenyl-2-(2,2,4-trimethylpyrrolidin-1-yl)pyridine-3-carboxamide], “+++ (“+++” means <3 uM)”. As for `Cc1cc(C)c(Cn2nc(C(C)(C)C)cc2C(=O)NS(=O)(=O)c2cn(C)cn2)c(C)c1` [Compound 1568, 5-tert-butyl-N-(1-methylimidazol-4-yl)sulfonyl-2-[(2,4,6-trimethylphenyl)methyl]pyrazole-3-carboxamide], the EC30 result is recorded as “+++ (“+++” means <3 uM)”.

As to `CCOc1cc(F)cc(-c2ccc(C(=O)NS(=O)(=O)c3ccc[nH]c3=O)c(N3[C@H](C)CC[C@@H]3C)n2)c1` [Compound 1096, 2-[(2R,5S)-2,5-dimethylpyrrolidin-1-yl]-6-(3-ethoxy-5-fluoro-phenyl)-N-[(2-oxo-1H-pyridin-3-yl)sulfonyl]pyridine-3-carboxamide], the EC30 result was “++ (“++” means between 3 uM and 10 uM)”.

Regarding `CCOc1cccc2c1CN(Cc1c(C)cc(C)cc1C)C2(C)C(=O)NS(=O)(=O)c1cccc(NC(=O)C(F)(F)F)n1` (centres unmarked) [Compound 1616, 4-ethoxy-1-methyl-N-[[6-[(2,2,2-trifluoroacetyl)amino]-2-pyridyl]sulfonyl]-2-[(2,4,6-trimethylphenyl)methyl]isoindoline-1-carboxamide], the EC30 entry is given as “+++ (“+++” means <3 uM)”. Take `CC1CCCN(c2nc(C(C)(C)C)ccc2C(=O)NS(=O)(=O)c2cccc(N)n2)C1` (centres unmarked) [Compound 1008, N-[(6-amino-2-pyridyl)sulfonyl]-6-tert-butyl-2-(3-methyl-1-piperidyl)pyridine-3-carboxamide]: the EC30 result was “+++ (“+++” means <3 uM)”.

In the case of `CC1CN(c2ncccc2C(=O)NS(=O)(=O)c2cccc(Oc3ccc(F)c(Cl)c3)n2)C(C)(C)C1` (centres unmarked) [Compound 1831, N—[[6-(3-chloro-4-fluoro-phenoxy)-2-pyridyl]sulfonyl]-2-(2,2,4-trimethylpyrrolidin-1-yl)pyridine-3-carboxamide], the EC30 entry is “+++ (“+++” means <3 uM)”. As for `CC(C)COc1cc(F)cc(-c2ccc(C(=O)NS(=O)(=O)c3cccc(N)n3)c(OCC3CCCC3)n2)c1` [Compound 1450, N-[(6-amino-2-pyridyl)sulfonyl]-2-(cyclopentylmethoxy)-6-(3-fluoro-5-isobutoxy-phenyl)pyridine-3-carboxamide], the EC30 entry is “+++ (“+++” means <3 uM)”.

For `CC(C)(C)c1cc(C(=O)NS(=O)(=O)c2cccc(N)c2)n(Cc2ccc(Cl)cc2Cl)n1` [Compound 797, N-(3-aminophenyl)sulfonyl-5-tert-butyl-2-[(2,4-dichlorophenyl)methyl]pyrazole-3-carboxamide], the EC30 entry is reported as “+ (“+” means greater than 10 uM)”.
